Laboratory results from patent publication US11351218B2, “Composition for preventing or treating glioblastoma comprising Platycodon grandiflorum A. De Candolle, Scutellaria baicalensis, Phellodendron amurense Ruprecht or Rubus coreanus” (University-Industry Cooperation Group of Kyung Hee …, priority 2019, dated 2022).

Experiments:
p-ERK = assay: Immunoblot of ERK phosphorylation, U373MG cells; format: cell-based, human; conditions: 50 μM pre-incubation 30 minutes, then PD 10 μM 24 hours
Protocol: FIGS. 10A to 10D show the results that PD-mediated autophagy inhibition is independent of mTOR and MAPK signaling pathways. FIGS. 10A to 10C show the results in which cells were treated with PD (0 μM, 0.5 μM, 1 μM, 5 μM, and 10 μM) for 24 hours. The immunoblot analyses for p-ULK1 (Ser757), ULK1, p-S6K (Thr389), p-AKT (Ser473), ERK2, P-ERK, p-JNK1, Beclin, and ATG7 were performed using lysates from GBMs. […] Total protein extracts were analyzed by immunoblot analyses for p-ERK, LC3B, and SQSTM1. GAPDH was used as an internal control.
(§1) Cells treated with the concentrations and materials described in FIGS. 1-3B, 7, 8, 10, 13, 16, 18, and 20 were lysed in buffer containing 20 mM Tris-HCl (pH 7.5), 150 mM NaCl, 1 mM EDTA, 1 mM Na2EDTA, 1 mM EGTA, 1% NP-40, 1% sodium deoxycholate, 1 mM Na3VO4, 1 mM MPI, 1 mM PMSF, and PI cocktails for 15 to 20 minutes on ice. Cell lysates were separated by SDS-PAGE and transferred to nitrocellulose membranes. […] The protein bands were detected with ECL western Blotting Substrate (Thermo Fisher Scientific, Waltham, Mass., USA).
Previous studies have shown that PD enhances autophagy via mTOR/MAPK pathway. […] It is known that mTORC1 activation, measured by S6K phosphorylation, inhibits autophagy initiation by phosphorylating the ULK1 (Ser 757). […]

LC3B and SQSTM1/p62 = assay: Immunoblot of autophagy-related proteins (LC3B, SQSTM1/p62) in U373MG cells; format: cell-based, human; conditions: 50 μM pre-incubation 30 minutes, then PD 10 μM 24 hours
Protocol: The effects of 26 kinds of herbal medicines, which influence the expression of autophagy-related proteins (LC3B and SQSTM1/p62) in total cell lysates from U87MG and U373MG cells, […] GAPDH was used as a loading control.
The human glioma cell lines, U87MG and U373MG, were cultured respectively in RPMI-1640 (Welgene) and DMEM (Welgene, Daegu, Korea) supplemented with 10% fetal bovine serum (FBS, JR Scientific) and 1% antibiotics (Ab, Welgene). All cultures were maintained at 37° C. in a humidified incubator containing 5% CO2.
as §1
To discover novel autophagy inhibitors, 26 herbal medicines were screened by western blot analysis. […] Therefore, the effect of each herbal medicine on the change in the p62 level was evaluated, given that a rise in the amount of p62 is related to the inhibition of autophaic flux.

COc1cccc(-c2cc(=O)c3ccccc3o2)c1N [PD98095, reference compound]
phosphorylation of ERK (p-ERK): effectively inhibited | levels of LC3B-II and p62 (LC3B and SQSTM1/p62): did not alter
